Entries after “also recorded” stand apart in the source; their conditions may differ. Read-outs that look alike come from different tables or passages of the source.
Tests used:
cancer cell lines = assay: cells; assay type: cell-based; details: for cytotoxicity (qualitative): cancer cell lines
Procedure: (§1) In addition to the screening already discussed, several of the before-described compounds and chimeras were screened against several or all of a panel of ten to twenty-five cancerous cell lines as target cells and seven "normal" cell preparations. This screening utilized a sulforhodamine B cytotoxidity assay as discussed below.
SULFORHODAMINE B CYTOTOXICITY ASSAY
a. Stock drug solutions were prepared by dissolving drug in the appropriate solvent (determined during chemical characterization studies) and sterile filtering the drug-solvent solution through a sterile 0.2μ filter unit. An aliquot was taken from each filtered drug solution and the O.D. was measured to determine the drug concentration.
f. Incubate (37° C., 5-10 percent CO2 in humidified incubator) plates for a total of 72 hours. Check plates at 24 hour intervals microscopically for signs of cytotoxicity.
(§2) IC50 values; i.e., the concentration of Compound required to kill one-half of the treated cells, were then calculated.
All other cells or cell lines were obtained from the American Type Culture Collection (ATCC) (all except CHO cells are human or mouse cancer cell lines as described by the ATC).
Tables 1 and 2 herein below provide average IC50 data from five to all ten of the above cancer cells lines for fused ring enediyne compounds disclosed herein. Those tables provide a generic structure and a description of the R group of that generic structure for each compound. Compound numbers as noted hereinbefore are also provided. Table 3 contains data for two fused-ring enediyne compounds (Compounds 47 and 120) as well as data for six chimers. Table 4 contains cancer cell and noraml cell cytotoxicity data for one select fused ring enediyne, Compound 153 against a number of "normal" cell preparations and tumor cell lines. Table 5 contains cancer cell and normal cell cytotoxicity data for another fused ring enediyne, Compound 250 against a similar panel of cells.

φX174 Form I DNA = assay: φX174 supercoiled DNA cleavage, agarose gel; assay type: biochemical
Procedure: The ethereal solution of Compound 40 produced by the LiAlH4 reduction of Compound 21 (39 mg, 0.10 mmol) was evaporated in vacuo to dryness and the residue dissolved in THF (4 mL) to give a 25 mM solution of Compound 40, assuming complete conversion of Compound 21. […]
Thus, a vial containing a 50 micromolar per base pair solution […] of the same buffer solution and 2.0 microliters of a 5.0 millimolar ethanol solution of Compound 40.
[…] A 2.0 microliter portion of glycerol loading buffer solution containing bromothymol blue indicator was added to each vial. A 10 microliter aliquot was then drawn from each. Gel electrophoresis analysis of the aliquots was performed using a 1.0 percent agarose gel with ethidium bromide run at 115 volts for 1 hour. DNA cleavage was indicated by the formation of nicked relaxed circular DNA (form II) or linearized DNA (form III), which was detected by visual inspection of the gel under 310 nanometer ultraviolet light using ethidium bromide.

Chemical stability = assay type: physicochemical
[1] = tested on: MOLT-4 (Leukemia) cell line; assay: cells; assay type: cell-based; details: for potency against Molt-4 relative to the other cell lines: Molt-4 vs average of other cell lines; for IC50: read-out: IC50
Procedure: as §1, §2

[2] = Average data obtained from 5~10 cell lines, read-out: IC50 (average)
[3] = 5.0 mM, pH 8.5, 36 hours, 37° C.

## O=C(OCCSc1ccccc1)N1c2ccccc2[C@@]23O[C@]24CCC[C@H]3C#C/C=C\C#C[C@H]14 (relative stereo) [Compound 21a]
Cancer cell lines; [2]
  IC50: 63 µM

## O=C(OCC[S+]([O-])c1ccccc1)N1c2ccccc2[C@@]23O[C@]24CCC[C@H]3C#C/C=C\C#C[C@H]14 (relative stereo) [Compound 21b]
Cancer cell lines; [2]
  IC50: 32 µM

## COc1ccc2c(c1)[C@@]13O[C@]14CCC[C@H]3C#C/C=C\C#C[C@@H]4N2C(=O)Oc1ccccc1 (relative stereo) [Compound 41a]
Cancer cell lines; [2]
  IC50: 20 µM

## CO[C@]12C#C/C=C\C#C[C@@H]3N(C(=O)Oc4ccccc4)c4ccccc4[C@]14O[C@@]34CCC2 (relative stereo) [Compound 46]
Cancer cell lines; [2]
  IC50: 63 µM

## O=C(OCCS(=O)(=O)c1ccccc1)N1c2ccccc2[C@@]23O[C@]24CCC[C@H]3C#Cc2ccccc2C#C[C@H]14 (relative stereo) [Compound 70]
φX174 Form I DNA; basic conditions, pH 9.0
  DNA cleavage: exhibited DNA cleaving properties
Cancer cell lines; [2]
  IC50: 3.2 µM
Cancer cell lines
  cytotoxicity (qualitative): potent anticancer activity against a variety of cell lines

## O=C(Oc1ccccc1)N1c2ccccc2[C@@]23O[C@]24CCC[C@@]3(O)C#Cc2ccccc2C#C[C@H]14 (relative stereo) [Compound 74]
Cancer cell lines; [2]
  IC50: 20 µM

## O=C(OCCSc1ccccc1)N1c2ccccc2[C@@]23O[C@]24CCC[C@H]3C#Cc2ccccc2C#C[C@H]14 (relative stereo) [Compound 77]
Cancer cell lines; [2]
  IC50: 36 µM

## O=C(OCCS(=O)(=O)c1ccccc1)N1c2ccccc2[C@@]23O[C@]24CCC[C@H]3C#Cc2cc3ccccc3cc2C#C[C@H]14 (relative stereo) [Compound 80]
φX174 Form I DNA; basic conditions, pH 9.0
  DNA cleavage: exhibited DNA cleaving properties
Cancer cell lines; [2]
  IC50: 1.6 µM
Cancer cell lines
  cytotoxicity (qualitative): potent anticancer activity against a variety of cell lines

## O=C(Oc1ccccc1)N1c2ccccc2[C@@]23O[C@]24CCC[C@@]3(O)C#Cc2cc3ccccc3cc2C#C[C@H]14 (relative stereo) [Compound 85]
Cancer cell lines; [2]
  IC50: 20 µM

## O=C(OCCSc1ccccc1)N1c2ccccc2[C@@]23O[C@]24CCC[C@H]3C#Cc2cc3ccccc3cc2C#C[C@H]14 (relative stereo) [Compound 88]
Cancer cell lines; [2]
  IC50: 50 µM

## CC(=O)O[C@]12C#C/C=C\C#C[C@@H]3N(C(=O)Oc4ccccc4)c4cc(O)ccc4[C@]14O[C@@]34CCC2 (relative stereo) [Compound 171]
φX174 Form I DNA; pH 8.5, 24 or 48 hours, 37° C.
  DNA cleavage: strong activity

## COC(=O)COC12C#C/C=C\C#CC3N(C(=O)Oc4ccccc4)c4ccccc4C14OC34CCC2 (stereo not shown) [Compound 24b]
Cancer cell lines; [2]
  IC50: 5 µM

## C1#CC2Nc3ccccc3C34OC23CCCC4C#C/C=C\1 (stereo not shown) [Compound 40]
φX174 Form I DNA; 5 mM, pH 8.0, 24 hours
  DNA cleavage: significant DNA cleavage
φX174 Form I DNA; pH 7.4 phosphate, 20 volume percent THF, 24 hours, 100-5000 μM
  DNA cleavage: cleavage
Chemical stability
  chemical stability: too labile for isolation; also recorded: decomposed at that temperature

## COc1ccc2c(c1)C13OC14CCCC3C#C/C=C\C#CC4N2C(=O)OCCS(=O)(=O)c1ccccc1 (stereo not shown) [Compound 41b]
[1]
  potency against Molt-4 relative to the other cell lines: 10,000 times
Cancer cell lines; [2]
  IC50: 0.25 µM

## COc1ccc2c(c1)C13OC14CCCC3C#C/C=C\C#CC4N2C(=O)OCCS(=O)(=O)c1cccc2ccccc12 (stereo not shown) [Compound 41c]
[1]
  potency against Molt-4 relative to the other cell lines: 10,000 times
Cancer cell lines; [2]
  IC50: 0.2 µM

## COc1ccc2c(c1)C13OC14CCCC3C#C/C=C\C#CC4N2C(=O)OCCS(=O)(=O)c1ccc2ccccc2c1 (stereo not shown) [Compound 41d]
[1]
  potency against Molt-4 relative to the other cell lines: 10,000 times
Cancer cell lines; [2]
  IC50: 0.13 µM

## O=C(Oc1ccccc1)N1c2cc(O)ccc2C23OC24CCCC3(O)C#C/C=C\C#CC14 (stereo not shown) [Compound 42]
φX174 Form I DNA; 2 mM
  cleavage of double stranded DNA: shown to cause cleavage of double stranded DNA
φX174 Form I DNA; 5 mM, pH 8.0, 24 hours
  DNA cleavage: significant DNA cleavage
φX174 Form I DNA; [3]
  DNA cleavage: significant DNA cleaving action
Chemical stability
  chemical stability: led to decomposition

## O=C(Oc1ccccc1)N1c2cc(OCc3ccccc3[N+](=O)[O-])ccc2C23OC24CCCC3(O)C#C/C=C\C#CC14 (stereo not shown) [Compound 43]
φX174 Form I DNA; [3]
  DNA cleavage: inert
Chemical stability
  chemical stability: rather labile

## COC12C#C/C=C\C#CC3N(C(=O)OCCS(=O)(=O)c4ccccc4)c4ccccc4C14OC34CCC2 (stereo not shown) [Compound 47]
φX174 Form I DNA; 5 mM, pH 8.0, 24 hours
  DNA cleavage: diminished activity against DNA
Cancer cell lines; [2]
  IC50: 5 µM

## COC12C#C/C=C\C#CC3Nc4ccccc4C14OC34CCC2 (stereo not shown) [Compound 48]
Chemical stability
  chemical stability: quite stable under basic or neutral conditions

## O=C1C=CC23OC24C2(O)C#C/C=C\C#CC(N(C(=O)Oc5ccccc5)C3=C1)C4(O)CCC2 (stereo not shown) [Compound 54]
φX174 Form I DNA
  DNA cleaving activity: exhibited DNA cleaving activity
φX174 Form I DNA; 5 mM, pH 8.0, 24 hours
  DNA cleavage: significant DNA cleavage
φX174 Form I DNA; [3]
  DNA cleavage: exhibited DNA cleaving capability
Chemical stability
  chemical stability: sensitive but stable molecule under neutral conditions

## COC12C#C/C=C\C#CC3N(C(=O)Oc4ccccc4)c4cc(O)ccc4C14OC34CCC2 (stereo not shown) [Compound 55]
φX174 Form I DNA; 5 mM, pH 8.0, 24 hours
  DNA cleavage: diminished activity against DNA

## CC(C)(C)C(=O)Oc1ccc2c(c1)N(C(=O)Oc1ccccc1)C1C#C/C=C\C#CC3(O)CCCC14OC234 (stereo not shown) [Compound 59a]
φX174 Form I DNA; [3]
  DNA cleavage: inert
[1]; Homo sapiens, MOLT-4, Molt-4 leukemia cell line
  IC50: 0.098 µM
Cancer cell lines; [2]
  IC50: 0.79 µM

## CC(C)(C)C(=O)Oc1ccc2c(c1)N(C(=O)Oc1ccccc1)C1C#C/C=C\C#CC3CCCC14OC234 (stereo not shown) [Compound 59b]
φX174 Form I DNA; [3]
  DNA cleavage: inert
[1]
  potency against Molt-4 relative to the other cell lines: 10,000 times
Cancer cell lines; [2]
  IC50: 0.2 µM

## O=C(Oc1ccccc1)N1c2ccccc2C23OC24CCCC3C#Cc2ccccc2C#CC14 (stereo not shown) [Compound 76]
Cancer cell lines; [2]
  IC50: 7.9 µM

## C1#CC2Nc3ccccc3C34OC23CCCC4C#Cc2ccccc21 (stereo not shown) [Compound 76a]
Chemical stability
  chemical stability: stable at 25 °C

## O=C(Oc1ccccc1)N1c2ccccc2C23OC24CCCC3C#Cc2cc3ccccc3cc2C#CC14 (stereo not shown) [Compound 87]
Cancer cell lines; [2]
  IC50: 3.2 µM

## C1#CC2Nc3ccccc3C34OC23CCCC4C#Cc2cc3ccccc3cc21 (stereo not shown) [Compound 87a]
Chemical stability
  chemical stability: stable at 25 °C

## O=C(OCCS(=O)(=O)c1ccccc1)N1c2ccccc2C23OC24CCCC3(OCCO)C#C/C=C\C#CC14 (stereo not shown) [Compound 120]
Cancer cell lines; [2]
  IC50: 40 µM

## CCNC1COC(OC2C(OCCOC34C#CC=CC#CC5N(C(=O)OCCS(=O)(=O)c6ccccc6)c6ccccc6C36OC56CCC4)OC(C)C(=NOC3CC(O)C(SC(=O)c4c(C)c(I)c(OC5OC(C)C(O)C(OC)C5O)c(OC)c4OC)C(C)O3)C2O)CC1OC (stereo not shown) [Compound 126a]
Cancer cell lines; [2]
  IC50: 44 µM

## CCNC1COC(OC2C(OCCOC34C#CC=CC#CC5N(C(=O)OCCS(=O)(=O)c6ccccc6)c6ccccc6C36OC56CCC4)OC(C)C(=NOC3CC(O)C(SC(=O)c4c(C)c(I)c(OC5OC(C)C(O)C(OC)C5O)c(OC)c4OC)C(C)O3)C2O)CC1OC (stereo not shown) [Compound 126b]
Cancer cell lines; [2]
  IC50: 8.7 µM

## CCNC1COC(OC2C(OCCOC34C#CC=CC#CC5N(C(=O)OCCS(=O)(=O)c6ccccc6)c6ccccc6C36OC56CCC4)OC(C)C(NOC3CC(O)C(SC(=O)c4c(C)c(I)c(OC5OC(C)C(O)C(OC)C5O)c(OC)c4OC)C(C)O3)C2O)CC1OC (stereo not shown) [Compound 127a]
[1]; Molt-4 leukemia cell line
  IC50: 0.001 µM
[1]
  potency against Molt-4 relative to the other cell lines: about 100 times
Cancer cell lines; [2]
  IC50: 0.14 µM
Cancer cell lines
  cytotoxicity (qualitative): particularly effective

## CCNC1COC(OC2C(OCCOC34C#CC=CC#CC5N(C(=O)OCCS(=O)(=O)c6ccccc6)c6ccccc6C36OC56CCC4)OC(C)C(NOC3CC(O)C(SC(=O)c4c(C)c(I)c(OC5OC(C)C(O)C(OC)C5O)c(OC)c4OC)C(C)O3)C2O)CC1OC (stereo not shown) [Compound 127b]
[1]; Molt-4 leukemia cell line
  IC50: 0.0001 µM
Cancer cell lines; [2]
  IC50: 7.6 µM
Cancer cell lines
  cytotoxicity (qualitative): particularly effective

## CC(=O)OC12C#C/C=C\C#CC3N(C(=O)Oc4ccccc4)c4cc(O)ccc4C14OC34CCC2 (stereo not shown) [Compound 201]
φX174 Form I DNA; [3]
  DNA cleavage: significant DNA cleaving action

## CC(=O)Oc1ccc2c(c1)N(C(=O)Oc1ccccc1)C1C#C/C=C\C#CC3(OC(C)=O)CCCC14OC234 (stereo not shown) [Compound 202]
φX174 Form I DNA; [3]
  DNA cleavage: inert

## COc1cccc2c1C(=O)c1c(O)c3c(c(O)c1C2=O)C[C@@](O)(C(=O)CO)C[C@@H]3O[C@H]1C[C@H](N)[C@H](O)[C@H](C)O1 [Doxorubicin, reference compound]
Cancer cell lines; cancer cells, control drugs, read-out: Range of Average IC50 Values, Cancer Cells
  IC50: 0.00016 to 0.098 µM

## C=CS(=O)(=O)c1ccccc1 [phenyl vinyl sulfone, reference compound]
φX174 Form I DNA; 1.0 mM
  DNA cleavage: no DNA cleavage
φX174 Form I DNA; 5.0 mM, pH 8.5 and 9.0, 48 hours, 37° C.
  DNA cleavage: Form II DNA

Source: US5281710A, “Dynemicin analogs: synthesis, methods of preparation and use” (The Scripps Research Institute, priority 1992, dated 1994)
